Experimental data published in patent US8975232B2, “Macrocyclic kinase inhibitors and uses thereof” (President and Fellows of Harvard College, priority 2010, dated 2015).
Where “and” joins values, the source holds several entries; their conditions need not be identical. Identical values can stand only once.

Experiments:
[1] = target: T1, full-length chicken c-Src (Gallus gallus, UniProt P00523); assay: Z'-LYTE kinase assay (Tyr 02 substrate peptide), full-length c-Src; type: biochemical; conditions: for IC50: full-length chicken c-Src, ATP near KM (50 μM)
T1 construct: assayed against full-length chicken c-Src
Protocol: (§1) For the FRET-based endpoint assay, kinase assays were performed using Invitrogen's Z′-LYTE kinase assay using the Tyr 02 substrate peptide (based upon the optimal Abl substrate peptide […]) according to the manufacturer's instructions. Assays were performed at near KM ATP concentrations for full-length c-Src and full-length c-Src T338I-50 μM and 7 μM, respectively.
Derivatives of MC4 were synthesized by Fmoc solid-phase peptide synthesis and assayed against full-length chicken c-Src using Invitrogen's Z′-LYTE kinase assay. […] Holding the amino acids at the A and C positions constant, variants of MC4 containing phenylalanine, cyclohexylalanine, pentafluorophenylalanine, and N-methyl-phenylalanine at the B position in place of furylalanine were synthesized and assayed.

[2] = target: T2, Abl (Homo sapiens, UniProt P00519); assay: Continuous spectrophotometric kinase activity assay; type: biochemical
T2 construct: human c-Abl (residues 229-512); made in house
T2 sequence (P00519 229-512): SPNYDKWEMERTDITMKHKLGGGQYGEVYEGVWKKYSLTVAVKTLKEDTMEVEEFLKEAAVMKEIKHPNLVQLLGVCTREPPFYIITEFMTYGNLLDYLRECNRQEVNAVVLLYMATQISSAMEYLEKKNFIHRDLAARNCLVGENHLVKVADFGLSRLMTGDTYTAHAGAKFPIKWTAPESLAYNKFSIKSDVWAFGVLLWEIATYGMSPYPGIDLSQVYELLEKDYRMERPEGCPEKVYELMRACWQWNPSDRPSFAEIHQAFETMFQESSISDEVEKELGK
Excerpt: (§2) Kinase domain constructs of human c-Abl (residues 229-512), chicken c-Src (residues 251-533 and residues 83-533), murine Lck (residues 227-509), and human Hck (residues 166-445) were expressed as previously described (Seeliger, Young et al. 2005; Seeliger, Nagar et al. 2007; the entire contents of each of which are incorporated by reference herein). Mutations were introduced into chicken c-Src (residues 251-533) (T338I, C277Q, L297M) by site-directed mutagenesis and verified by DNA sequencing.
(§3) In vitro kinase inhibition assays were performed using either a continuous spectrophotometric assay or a FRET-based endpoint assay.
(§4) The original characterization of kinase inhibition was performed with a commercial kinase assay that relies on a fluorescently labeled peptide kinase substrate (Z-LYTE, Invitrogen). For further characterization, a continuous spectrophotometric kinase activity assay was employed that is easily adapted to different substrate peptides as well as a wider range of peptide and ATP concentrations.

[3] = target: T3, Src kinase domain (chicken c-Src residues 251-533) (Gallus gallus, UniProt P00523); assay: as above; type: biochemical; conditions: for IC50: Src kinase domain
T3 construct: chicken c-Src (residues 251-533 and residues 83-533); made in house
Excerpt: as §2, §3, §4

[4] = target: T4, Lck (Mus musculus, UniProt P06240); assay: as above; type: biochemical, murine
T4 construct: murine Lck (residues 227-509); made in house
T4 sequence (P06240 227-509): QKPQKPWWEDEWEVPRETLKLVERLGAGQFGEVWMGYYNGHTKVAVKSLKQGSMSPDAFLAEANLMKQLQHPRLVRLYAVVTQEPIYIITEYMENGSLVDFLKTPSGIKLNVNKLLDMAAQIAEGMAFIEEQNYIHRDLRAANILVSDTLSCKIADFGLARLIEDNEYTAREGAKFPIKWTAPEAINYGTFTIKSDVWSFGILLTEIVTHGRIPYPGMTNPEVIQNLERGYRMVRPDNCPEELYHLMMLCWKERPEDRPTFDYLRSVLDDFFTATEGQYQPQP
Excerpt: as §2, §3, §4

[5] = tested on: 3T3 cells (src−/−) stably transfected with c-Src Y529F; assay: Global phosphotyrosine Western blot (4G10) in c-Src Y529F-transfected cells; type: cell-based, murine
Protocol: Cells were cultured in 48-well tissue culture plates in DMEM+10% FBS until they reached confluence. After removing serum-containing medium, cells were washed with serum-free DMEM, and small molecule inhibitor in serum-free DMEM with 2% DMSO was added to each well and incubated overnight. After incubation with compound, cells were washed once with PBS and lysed in Cell Extraction Buffer (Invitrogen), a modified RIPA buffer, supplemented with PMSF and protease inhibitors according to the manufacturer's instruction. Cell lysates were quantified by BCA assay (Pierce Biotechnology) and an equivalent amount of lysate was loaded into each lane of a 4-12% polyacrylamide gel, and separated by SDS-PAGE. Separated proteins were transferred onto a PVDF membrane, and blocked for one hour with 5% BSA in TBST buffer. The membrane was then incubated overnight at 4° C. with 4G10 anti-phosphotyrosine antibody (Millipore) and a β-tubulin antibody (Sigma) as a loading control. Fluorescent anti-mouse and anti-rabbit secondary antibodies (LI-COR) were added prior to imaging the membrane.
Having obtained macrocycle Src kinase inhibitors with nanomolar in vitro potency, the potency for inhibition of Src kinase activity in living cells was assessed. Since intracellular Src kinase signaling is complex and tightly regulated, a cell culture line transfected with a constitutively active form of murine c-Src was chosen. 3T3 cells (src−/−) stably transfected with c-Src Y529F were compared to 3T3 cells (src−/−) transfected with empty vector. Anti-phosphotryosine Western blotting with the 4G10 antibody (Millipore) indicated a marked difference between global phosphotyrosine levels in the c-Src Y529F transfected cells compared to those transfected with empty vector; in fact, almost all detectable intracellular phosphotyrosine in the Src-transfected cell line was a result of c-Src Y529F and downstream signaling (FIG. 23, upper panel, compare lanes 2 and 3, transfected and trated with DMSO, against lanes 8 and 9, transfected with empty vector).
Briefly, cells were seeded in a 48-well plate and grown to confluence in Dulbecco's Modified Eagle Medium (DMEM) supplemented with 10% fetal bovine serum (FBS). Individual wells were then treated with 10 or 100 μM concentration of macrocycle in serum-free DMEM overnight. After removing the small molecule and washing with phosphate-buffered saline, cells were lysed in radioimmunoprecipitation assay (RIPA) buffer, and global phosphotyrosine levels were quantified by Western blot.

[6] = target: HCK (Homo sapiens, UniProt P08631); assay: Continuous spectrophotometric kinase activity assay; type: biochemical; set-up: Kinase domain constructs of human c-Abl (residues 229-512), chicken c-Src (residues 251-533 and residues 83-533), murine Lck (residues 227-509), and human Hck (residues 166-445); made in house
Sequence of HCK (P08631 262-515 limits assumed): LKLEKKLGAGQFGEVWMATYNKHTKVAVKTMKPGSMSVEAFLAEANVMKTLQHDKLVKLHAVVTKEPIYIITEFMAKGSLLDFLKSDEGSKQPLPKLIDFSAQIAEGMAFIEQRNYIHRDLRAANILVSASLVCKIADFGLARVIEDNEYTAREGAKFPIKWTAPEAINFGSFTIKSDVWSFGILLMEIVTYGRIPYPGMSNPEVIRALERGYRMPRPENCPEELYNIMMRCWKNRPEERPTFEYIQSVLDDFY
Excerpt: as §2, §3, §4

[7] = target: MAPKAPK2 (MK2) (Homo sapiens, UniProt P49137); assay: Z'-LYTE kinase assay (Invitrogen SelectScreen); type: biochemical; conditions: for IC50: MK2 (MAPKAPK2)
Sequence of MAPKAPK2 (MK2) (P49137 whole entry): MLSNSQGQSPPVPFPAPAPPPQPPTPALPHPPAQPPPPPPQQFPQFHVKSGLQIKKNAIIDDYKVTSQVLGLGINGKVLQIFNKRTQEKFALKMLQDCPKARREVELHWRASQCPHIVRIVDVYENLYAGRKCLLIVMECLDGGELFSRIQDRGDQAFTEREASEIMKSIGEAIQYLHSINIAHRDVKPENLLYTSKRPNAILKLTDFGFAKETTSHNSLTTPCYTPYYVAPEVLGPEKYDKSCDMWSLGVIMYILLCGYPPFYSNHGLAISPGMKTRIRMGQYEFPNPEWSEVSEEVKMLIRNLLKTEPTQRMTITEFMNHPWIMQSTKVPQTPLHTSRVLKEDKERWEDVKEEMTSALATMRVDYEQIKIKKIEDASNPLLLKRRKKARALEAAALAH
Excerpt: (§5) Macrocycles A10-B1-C11-D5 and A10-B8-C11-D5 were enriched 2- to 6-fold upon selection for binding Akt3, MAPKAPK2, Pim1, and VEGFR2 (FIG. 6). These two macrocycles are structurally similar, sharing nitrophenylalanine (A10) and cyclohexylstatine (C11) building blocks as well as the same lysine scaffold (D5), and differ only at the B building block with either furylalanine (B1) or cyclohexylalanine (B8) (FIG. 6). For assay purposes, the macrocycles were synthesized with C-terminal PEG-diamine linkers to aid solubility, and then tested for the ability to inhibit Akt3, MAPKAPK2, Pim1 and VEGFR2.
(§6) Src IC50 determinations and single-point inhibition measurements were performed using Invitrogen's Z′-LYTE Tyr 02 assay kit according to the manufacturer's protocols. All kinase assays were performed at ATP concentrations near KM,ATP values, except where noted otherwise. Active human Src kinase was obtained from Millipore. For kinome profiling and IC50 determinations against non-Src kinases, compounds were submitted to Invitrogen's SelectScreen Kinase Profiling Service.

[8] = target: Pim1 (Homo sapiens, UniProt P11309); assay: Z'-LYTE kinase assay (Invitrogen SelectScreen); type: biochemical; conditions: for IC50: Pim1
Sequence of Pim1 (P11309 whole entry): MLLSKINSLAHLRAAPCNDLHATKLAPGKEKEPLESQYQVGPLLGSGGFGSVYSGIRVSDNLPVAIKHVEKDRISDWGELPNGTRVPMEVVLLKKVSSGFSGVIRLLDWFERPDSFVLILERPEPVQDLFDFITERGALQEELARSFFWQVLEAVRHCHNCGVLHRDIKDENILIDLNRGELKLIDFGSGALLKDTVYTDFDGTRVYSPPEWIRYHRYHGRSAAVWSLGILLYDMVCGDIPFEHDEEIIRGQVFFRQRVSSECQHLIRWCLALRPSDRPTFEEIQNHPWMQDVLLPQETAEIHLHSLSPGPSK
Excerpt: as §5, §6

[9] = target: p38α-MAPKAPK2 kinase cascade (P38α-MK2) (Homo sapiens, UniProt P49137+Q16539); assay: Z'-LYTE kinase cascade assay (Invitrogen SelectScreen); type: biochemical
Sequence of p38α-MAPKAPK2 kinase cascade (P38α-MK2) (Q16539 whole entry): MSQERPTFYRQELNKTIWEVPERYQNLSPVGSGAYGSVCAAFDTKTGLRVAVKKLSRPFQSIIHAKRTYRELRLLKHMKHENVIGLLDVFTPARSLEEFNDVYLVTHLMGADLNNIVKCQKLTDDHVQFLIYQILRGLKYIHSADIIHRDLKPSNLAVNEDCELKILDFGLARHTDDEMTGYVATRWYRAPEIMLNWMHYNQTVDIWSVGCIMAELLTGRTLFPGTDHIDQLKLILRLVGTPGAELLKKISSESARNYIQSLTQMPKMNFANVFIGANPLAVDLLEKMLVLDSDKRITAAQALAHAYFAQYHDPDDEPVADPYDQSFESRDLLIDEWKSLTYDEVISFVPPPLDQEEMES
Sequence of p38α-MAPKAPK2 kinase cascade (P38α-MK2) (P49137 whole entry): as the sequence (P49137 whole entry) above
Excerpt: as §5, §6

[10] = tested on: Src Thr338Ile; assay: Inhibition of Src gatekeeper mutant; type: biochemical, chicken
Excerpt: as §2, §1

[11] = target: Akt3 (Homo sapiens, UniProt Q9Y243); assay: Z'-LYTE kinase assay (Invitrogen SelectScreen); type: biochemical
Sequence of Akt3 (Q9Y243 whole entry): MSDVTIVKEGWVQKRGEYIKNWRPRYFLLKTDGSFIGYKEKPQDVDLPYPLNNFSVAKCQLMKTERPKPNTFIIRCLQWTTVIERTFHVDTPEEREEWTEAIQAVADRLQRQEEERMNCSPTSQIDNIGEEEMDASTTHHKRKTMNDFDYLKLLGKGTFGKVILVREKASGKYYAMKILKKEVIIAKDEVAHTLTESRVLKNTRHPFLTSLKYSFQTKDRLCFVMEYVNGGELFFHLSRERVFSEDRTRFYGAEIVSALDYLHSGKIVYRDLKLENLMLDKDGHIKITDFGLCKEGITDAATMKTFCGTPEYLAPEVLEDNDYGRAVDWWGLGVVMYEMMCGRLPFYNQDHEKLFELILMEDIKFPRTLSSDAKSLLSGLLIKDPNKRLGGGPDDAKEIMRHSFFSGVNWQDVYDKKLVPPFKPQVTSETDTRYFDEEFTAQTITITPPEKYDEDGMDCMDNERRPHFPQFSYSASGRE
Excerpt: as §5, §6

[12] = target: VEGFR2 (KDR) (Homo sapiens, UniProt P35968); assay: Z'-LYTE kinase assay (Invitrogen SelectScreen); type: biochemical
Sequence of VEGFR2 (KDR) (P35968 20-1356): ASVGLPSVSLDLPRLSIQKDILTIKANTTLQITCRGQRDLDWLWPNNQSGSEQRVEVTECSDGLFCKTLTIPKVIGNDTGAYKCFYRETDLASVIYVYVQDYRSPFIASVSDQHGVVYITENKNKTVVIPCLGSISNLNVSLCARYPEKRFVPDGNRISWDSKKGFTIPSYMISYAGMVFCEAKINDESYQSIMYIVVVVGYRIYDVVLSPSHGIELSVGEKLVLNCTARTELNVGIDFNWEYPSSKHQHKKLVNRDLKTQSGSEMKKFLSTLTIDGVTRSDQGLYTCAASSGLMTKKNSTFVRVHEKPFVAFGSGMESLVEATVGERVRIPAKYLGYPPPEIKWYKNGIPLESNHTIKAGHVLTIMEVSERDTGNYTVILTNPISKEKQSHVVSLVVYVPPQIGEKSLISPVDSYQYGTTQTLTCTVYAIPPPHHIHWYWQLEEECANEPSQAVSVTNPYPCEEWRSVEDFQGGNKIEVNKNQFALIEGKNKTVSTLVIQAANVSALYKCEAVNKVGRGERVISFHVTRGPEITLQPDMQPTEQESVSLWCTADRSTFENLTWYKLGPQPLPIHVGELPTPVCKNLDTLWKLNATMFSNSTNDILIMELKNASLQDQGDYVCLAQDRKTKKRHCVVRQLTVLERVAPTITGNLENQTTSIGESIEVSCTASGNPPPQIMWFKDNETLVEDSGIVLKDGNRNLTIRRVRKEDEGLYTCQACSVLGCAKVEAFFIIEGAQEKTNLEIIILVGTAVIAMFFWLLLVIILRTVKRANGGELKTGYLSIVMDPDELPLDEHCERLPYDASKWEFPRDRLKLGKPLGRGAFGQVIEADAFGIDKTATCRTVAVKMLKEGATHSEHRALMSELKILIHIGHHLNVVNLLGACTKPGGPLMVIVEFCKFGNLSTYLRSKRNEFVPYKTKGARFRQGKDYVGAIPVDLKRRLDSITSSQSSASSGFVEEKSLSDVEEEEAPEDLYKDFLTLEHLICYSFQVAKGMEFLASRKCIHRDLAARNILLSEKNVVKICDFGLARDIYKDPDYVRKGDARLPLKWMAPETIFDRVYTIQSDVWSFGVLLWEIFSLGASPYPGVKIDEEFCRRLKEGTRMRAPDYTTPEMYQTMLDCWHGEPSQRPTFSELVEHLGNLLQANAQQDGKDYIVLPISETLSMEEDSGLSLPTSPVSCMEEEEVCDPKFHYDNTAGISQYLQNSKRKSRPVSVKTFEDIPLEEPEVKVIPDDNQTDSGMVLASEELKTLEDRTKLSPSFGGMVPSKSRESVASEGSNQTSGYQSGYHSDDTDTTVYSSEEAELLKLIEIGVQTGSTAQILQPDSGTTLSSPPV
Excerpt: as §5, §6

[13] = 5 μM ATP, 100 μM Src optimal peptide
[14] = 5 μM ATP, 300 μM Src optimal peptide
[15] = 250 μM ATP, 300 μM Src optimal peptide
[16] = 5 μM ATP, 100 μM Src optimal peptide, listed as Macrocycle 1.2
[17] = 10 or 100 μM macrocycle overnight

O=C1/C=C\C(=O)N[C@@H](CC2CCCCC2)C(=O)N[C@@H](Cc2ccccc2)C(=O)N[C@@H](CCCNC(=O)c2cnccn2)C(=O)NCC[C@@H](C(=O)O)N1 [MC1.2]
increase in Src inhibition potency relative to parent macrocycle [1]: > 150 fold
IC50 [1]: ≤ 0.004 µM
IC50 [2, 13]: > 100 µM
IC50 [2, 14]: > 100 µM
IC50 [2, 15]: > 100 µM
IC50 [3, 13]: 0.07 µM
IC50 [3, 16]: ≤ 0.07 µM
IC50 [3, 14]: 0.12 µM
IC50 [3, 15]: 0.14 µM
increase in IC50 upon increasing substrate peptide 3-fold to 300 μM ([3]; Src optimal substrate peptide 100 to 300 μM): 50%
IC50 [4, 13]: 4 µM
IC50 [4, 16]: ≤ 0.87 µM
IC50 [4, 14]: 1.9 µM
IC50 [4, 15]: 2.4 µM
reduction of global tyrosine phosphorylation (in words) ([5]; 100 μM): did not reduce global tyrosine phosphorylation
IC50 [6, 13]: 0.36 µM
IC50 [6, 16]: ≤ 0.36 µM
IC50 [6, 14]: 0.46 µM
IC50 [6, 15]: 1 µM

NCCOCCOCCNC(=O)[C@@H]1CNC(=O)[C@@H](Cc2ccc(C(=O)c3ccccc3)cc2)NC(=O)[C@H](CC2CCCCC2)NC(=O)[C@H](C/C=C/c2ccccc2)NC(=O)/C=C\C(=O)N1 [cis-A12-B8-C10-D8]
IC50 [7]: 47 µM
IC50 [8]: 17 µM
IC50 [9]: 14 µM

NC(=O)[C@@H]1CCCNC(=O)[C@H](Cc2ccc([N+](=O)[O-])cc2)NC(=O)[C@H](Cc2ccc(F)cc2)NC(=O)[C@H](CC2CCCCC2)NC(=O)/C=C/C(=O)N1 [MC4.3]
Src inhibition relative to parent compound (in words) [1]: retained all of the parent compound activity
inhibition of Src Thr338Ile gatekeeper mutant (in words) [10]: retained their inhibition potency
reduction of global phosphotyrosine levels (in words) [5, 17]: higher levels of tyrosine phosphorylation inhibition

NC(=O)[C@@H]1CCCNC(=O)[C@H](Cc2ccc([N+](=O)[O-])cc2)NC(=O)[C@H](Cc2ccccc2)NC(=O)[C@H](CC2CCCCC2)NC(=O)/C=C/C(=O)N1 [MC4.2]
increase in Src inhibition potency relative to parent macrocycle [1]: > 10 fold
IC50 [1]: 0.006 µM
IC50 [3, 13]: 0.6 µM
inhibition of Src Thr338Ile gatekeeper mutant (in words) [10]: retained their inhibition potency
reduction of global phosphotyrosine levels (in words) [5, 17]: modest reduction
EC50 ([5]; overnight treatment, serum-free DMEM, read-out: EC50 of reduction of global phosphotyrosine levels): > 100 µM

NCCOCCOCCNC(=O)[C@@H]1CCCCNC(=O)[C@H](Cc2ccc([N+](=O)[O-])cc2)NC(=O)[C@H](Cc2ccco2)NC(=O)C[C@H](O)[C@H](CC2CCCCC2)NC(=O)/C=C\C(=O)N1 [cis-A10-B1-C11-D5]
inhibition of Akt3 (in words) ([11]; isolated kinase enzyme): did not inhibit
inhibition of MAPKAPK2 (in words) ([7]; isolated kinase enzyme): did not inhibit
inhibition of Pim1 (in words) ([8]; isolated kinase enzyme, non-DNA-linked form): did not inhibit
increase of VEGFR2 enzyme activity ([12]; 10 μM macrocycle): 70%
increase of VEGFR2 enzyme activity ([12]; 100 μM compound): 300%
IC50 [9]: 6.4 µM and 6.5 µM

NCCOCCOCCNC(=O)[C@@H]1CCCCNC(=O)[C@H](Cc2ccc([N+](=O)[O-])cc2)NC(=O)[C@H](CC2CCCCC2)NC(=O)C[C@H](O)[C@H](CC2CCCCC2)NC(=O)/C=C\C(=O)N1 [cis-A10-B8-C11-D5]
IC50 ([11]; Akt3): 8.7 µM and 8.4 µM
IC50 [7]: 6.1 µM
IC50 [8]: 7.5 µM and 7.3 µM
IC50 [9]: 3.4 µM

CC(C)(C)n1nc(-c2ccc(Cl)cc2)c2c(N)ncnc21 [PP2, reference compound]
reduction of global phosphotyrosine levels (in words) ([5]; 10 μM): reduction of global phosphotyrosine to levels comparable with those observed in the cells transfected with empty vector
